Values joined by “and” are separate entries in the source; they are usually repeats but may differ in a detail not shown here. Equal entries are not always repeated.
Assays:
[1] = test system: AUD patients; test: Double-blind randomized trial of psilocybin-assisted treatment of AUD: drinking outcomes by timeline followback; format: in vivo, human; settings: for % of Drinking days (PDD), mean / Drinks per day (DPD), mean / % of Heavy drinking days, between-group mean difference (diphenhydramine-psilocybin): 32-week double-blind follow-up (weeks 5-36); for % of Heavy drinking days (PHDD), mean: 32-week double-blind follow-up (weeks 5-36) after first dose, oral psilocybin 25 mg/70 kg then 25-40 mg/70 kg or diphenhydramine 50 mg then 50-100 mg at weeks 4 and 8, with psychotherapy; for Abstinence, NNT / Abstinence, OR / No heavy drinking, NNT / No heavy drinking, OR / WHO risk level Decrease 1, NNT / WHO risk level Decrease 1, OR / WHO risk level Decrease 2, NNT / WHO risk level Decrease 2, OR / WHO risk level Decrease 3, NNT / WHO risk level Decrease 3, OR: psilocybin vs diphenhydramine
Description: Design: In this double-blind trial, participants were offered 12 weeks of manualized psychotherapy and were randomly assigned to receive psilocybin vs. diphenhydramine during two day-long medication sessions at week 4 and 8. Outcomes were assessed over the 32-week double-blind period following the first dose of study medication.
Interventions: Study medications were psilocybin 25 mg/70 kg vs. diphenhydramine 50 mg (first session) and psilocybin 25-40 mg/70 kg vs. diphenhydramine 50-100 mg (second session). Psychotherapy included motivational enhancement therapy and cognitive-behavioral therapy.
Qualifying participants were assessed at screening, baseline (week 0), and weeks 4, 5, 8, 9, 12, 24, and 36. They were randomly assigned in a 1:1 ratio to receive either psilocybin or diphenhydramine, administered in two eight-hour sessions at weeks 4 and 8. All participants who completed the double-blind observation period (weeks 5-36) and still met safety criteria were offered an open-label psilocybin session at week 38, including four additional psychotherapy sessions and assessment for an additional 18 weeks. Participants received up to a total of $560 for completing assessments in the course of the trial, but were not reimbursed for attending the therapy and medication sessions.
All participants were offered a total of 12 psychotherapy sessions from a team of two therapists including a licensed psychiatrist: 4 before the first medication session, 4 between the first and second medication sessions, and 4 in the month following the second medication session. The psychotherapy, described in detail in a separate publication,^41 included motivational interviewing and cognitive behavioral therapy for AUD as well as material designed to help the participants to manage and make use of the psychoactive effects of the study medication.
Study medication was taken orally in a single opaque capsule of unvarying appearance and weight. Psilocybin doses were weight-based to control for participant body weight, which ranged from 49.0 to 116.1 (mean=78.3, SD=15.6) kg. Doses for the first session were psilocybin 25 mg/70 kg or diphenhydramine 50 mg. Participants received an increased dose in the second session if there were no dose-limiting adverse events and they agreed to the increase. The increased dose of psilocybin was 30 mg/70 kg if the participant's total score on the Pahnke-Richards Mystical Experience Questionnaire (MEQ)^42 was ≥0.6 in the first session (indicating a robust subjective response to the 25 mg/70 kg dose), or 40 mg/70 kg if the MEQ total score in the first session was <0.6. The increased dose of diphenhydramine was 100 mg, regardless of subjective response.
Study medication was administered at approximately 9 AM, after which participants were required to stay in the session room with the therapists for at least 8 hours (except for bathroom breaks). During the session, participants were encouraged to lie on a couch wearing eyeshades and headphones providing a standardized playlist of music. Medications were available in the session room to treat hypertension, severe anxiety, or psychotic symptoms.
The pre-specified primary drinking outcome was the percentage of heavy drinking days (PH DD) during […], assessed at weeks 8, 12, 24, and 36 using the timeline followback, a reliable and valid calendar-based method which is the gold standard outcome for AUD clinical trials.^43-47 Secondary outcomes included percent drinking days (PDD), average drinks per day (DPD), and dichotomous outcomes: abstinence, lack of heavy drinking days, and reduction in World Health Organization risk level^48 by one, two, or three levels. Hair or fingernail samples were collected at week 24 and assayed for ethylglucuronide (EtG) concentration to confirm self-reported abstinence. The Short Index of Problems (SIP-2R)^49 was used to assess drinking-related problems at baseline and weeks 12, 24, and 36. […]

[2] = test system: AUD patients; test: Subjective effects of study medication, Mystical Experience Questionnaire (MEQ); format: in vivo, human
Description: Subjective effects of psilocybin vs. diphenhydramine were assessed using the States of Consciousness Questionnaire,^42 containing the 43-item Mystical Experience Questionnaire (MEQ), completed immediately after each medication session.
MEQ scores for the first and second medication sessions were computed and contrasted by group (psilocybin vs. diphenhydramine) using t-tests for independent samples.

[3] = test system: AUD patients; test: Safety: blood pressure, heart rate and adverse events in the trial; format: in vivo, human; settings: for Adverse events reported, number / Serious adverse events: 32 weeks following the first administration of study medication; for Headaches, participants affected / treated / Headaches, percent of participants: treatment-emergent, within 48 hours of study drug administration
Description: Blood pressure and heart rate were assessed at 30- to 60-minute intervals during the first 6 hours of each medication session. Adverse events were solicited at each post-screening assessment.
Blood pressure and heart rate treatment contrasts were based on MMRM with fixed, categorical effects of treatment and assessment, a treatment-by-assessment interaction, and a fixed covariate (value of each outcome prior to drug administration). All adverse events occurring after informed consent were MedDRA-coded and tabulated, and prevalence within treatment groups (proportion of participants affected) was compared using Fisher's exact tests.

[4] = test system: AUD patients; test: Drinking-related problems, Short Index of Problems (SIP-2R); format: in vivo, human; settings: week 36
Description: The pre-specified primary drinking outcome was the percentage of heavy drinking days (PH DD) during […], assessed at weeks 8, 12, 24, and 36 using the timeline followback, a reliable and valid calendar-based method which is the gold standard outcome for AUD clinical trials.^43-47 Secondary outcomes included percent drinking days (PDD), average drinks per day (DPD), and dichotomous outcomes: abstinence, lack of heavy drinking days, and reduction in World Health Organization risk level^48 by one, two, or three levels. Hair or fingernail samples were collected at week 24 and assayed for ethylglucuronide (EtG) concentration to confirm self-reported abstinence. The Short Index of Problems (SIP-2R)^49 was used to assess drinking-related problems at baseline and weeks 12, 24, and 36.
Treatment contrasts for dichotomous outcomes were obtained using Chi-squared statistics. Effects of treatment on problems related to drinking were compared using univariate mixed models for repeated measures (MMRM) and generalized linear models. Hedges'g was computed as a measure of effect size for between- and within-group differences on continuous outcomes, and odds ratios were computed for dichotomous outcomes. No correction was made for multiple comparisons, so analyses of secondary outcomes should be considered exploratory.

[5] = test system: alcohol-dependent participants; settings: psilocybin 21-28 mg/70 kg, open-label; cited from earlier work
[6] = test system: alcohol-dependent participants; settings: meta-analysis, 95% confidence interval 1.36-2.84; cited from earlier work
[7] = Weeks 5-36, relative to 12 weeks prior to screening
[8] = Session 1, psilocybin 25 mg/70 kg or diphenhydramine 50 mg
[9] = Session 2, psilocybin 25-40 mg/70 kg or diphenhydramine 50-100 mg

## CN(C)CCOC(c1ccccc1)c1ccccc1 [Diphenhydramine, diphenhydramine]
[1]
  % of Drinking days (PDD), mean: 42.83%
  Drinks per day (DPD), mean: 2.26 Drinks per day
  % of Heavy drinking days (PHDD), mean: 23.57%
[1]; listed as diphenhydramine
  % of Heavy drinking days (PHDD), mean: 23.6%
[1]; Weeks 5-36
  Abstinence, % of participants: (8.9) %
  Abstinence, No. of participants: 4
  No heavy drinking, % of participants: (11.1) %
  No heavy drinking, No. of participants: 5
  WHO risk level Decrease 1, % of participants: (71.1) %
  WHO risk level Decrease 2, % of participants: (40.0) %
  WHO risk level Decrease 2, No. of participants: 18
  WHO risk level Decrease 3, % of participants: (13.3) %
  WHO risk level Decrease 3, No. of participants: 6
[1]; [7]
  WHO risk level Decrease 1, No. of participants: 32
[1]; Weeks 33-36
  Abstinence, % of participants: (24.4) %
  Abstinence, No. of participants: 11
  No heavy drinking, % of participants: (40.0) %
  No heavy drinking, No. of participants: 18
  WHO risk level Decrease 1, % of participants: (64.4) %
  WHO risk level Decrease 1, No. of participants: 29
  WHO risk level Decrease 2, % of participants: (40.0) %
  WHO risk level Decrease 2, No. of participants: 18
  WHO risk level Decrease 3, % of participants: (17.8) %
  WHO risk level Decrease 3, No. of participants: 8
[2]; [8]
  Mean MEQ score: 0.10 (SD=0.13)
[2]; [9]
  Mean MEQ score: 0.11 (SD=0.16)
[3]
  Adverse events reported, number: 85
  Serious adverse events: Three
  Headaches, participants affected / treated: 2/45
  Headaches, percent of participants: 4.4%

## CN(C)CCc1c[nH]c2cccc(OP(=O)(O)O)c12 [Psilocybin, [3-[2-(dirnethylamino)ethyl]-1H-indo1-4-yl] dihydrogen phosphate]
[1]; 32-week double-blind follow-up
  % of Drinking days, between-group Hedges g: 0.4
  % of Drinking days, between-group mean difference (diphenhydramine-psilocybin): 13.44%
  Drinks per day, between-group Hedges g: 0.54
  Drinks per day, between-group mean difference (diphenhydramine-psilocybin): 1.09 Drinks per day
[1]
  % of Drinking days (PDD), mean: 29.39%
  % of Heavy drinking days, between-group mean difference (diphenhydramine-psilocybin): 13.86%
  Drinks per day (DPD), mean: 1.17 Drinks per day
  % of Heavy drinking days (PHDD), mean: 9.71%
[1]; listed as psilocybin
  % of Heavy drinking days (PHDD), mean: 9.7%
  % of Heavy drinking days, between-group mean difference (diphenhydramine-psilocybin): 13.86% and 13.9%
[1]; 32-week double-blind follow-up, positive = lower mean in psilocybin group
  % of Heavy drinking days, between-group Hedges g: 0.52
[1]; 32 weeks of double-blind observation
  PHDD of psilocybin-treated participants as percent of that in the diphenhydramine-treated group: 41%
[1]; Weeks 5-36
  Abstinence, % of participants: 22.9%
  Abstinence, No. of participants: 11
  No heavy drinking, % of participants: 33.3%
  No heavy drinking, No. of participants: 16
  WHO risk level Decrease 1, % of participants: 83.3%
  WHO risk level Decrease 2, % of participants: 60.4%
  WHO risk level Decrease 2, No. of participants: 29
  WHO risk level Decrease 3, % of participants: 29.2%
  WHO risk level Decrease 3, No. of participants: 14
  Abstinence, NNT: 7.1
  Abstinence, OR: 3.05
  No heavy drinking, NNT: 4.5
  No heavy drinking, OR: 4
  WHO risk level Decrease 1, NNT: 8.2
  WHO risk level Decrease 1, OR: 2.03
  WHO risk level Decrease 2, NNT: 4.9
  WHO risk level Decrease 2, OR: 2.29
  WHO risk level Decrease 3, NNT: 6.3
  WHO risk level Decrease 3, OR: 2.68
[1]; [7]
  WHO risk level Decrease 1, No. of participants: 40
[1]; Weeks 33-36
  Abstinence, % of participants: 47.9%
  Abstinence, No. of participants: 23
  No heavy drinking, % of participants: 62.5%
  No heavy drinking, No. of participants: 30
  WHO risk level Decrease 1, % of participants: 89.6%
  WHO risk level Decrease 1, No. of participants: 43
  WHO risk level Decrease 2, % of participants: 60.4%
  WHO risk level Decrease 2, No. of participants: 29
  WHO risk level Decrease 3, % of participants: 37.5%
  WHO risk level Decrease 3, No. of participants: 18
  Abstinence, NNT: 4.3
  Abstinence, OR: 2.84
  No heavy drinking, NNT: 4.4
  No heavy drinking, OR: 2.5
  WHO risk level Decrease 1, NNT: 4
  WHO risk level Decrease 1, OR: 4.74
  WHO risk level Decrease 2, NNT: 4.9
  WHO risk level Decrease 2, OR: 2.29
  WHO risk level Decrease 3, NNT: 5.1
  WHO risk level Decrease 3, OR: 2.78
[2]; [8]
  Mean MEQ score: 0.59 (SD=0.24)
[2]; [9]
  Mean MEQ score: 0.64 (SD=0.21)
[3]
  Adverse events reported, number: 119
  Serious adverse events: no serious adverse events
  Headaches, participants affected / treated: 21/48
  Headaches, percent of participants: 43.8%
[3]; after drug administration
  Time by which blood pressure was no longer significantly elevated: ≤ 360 min
  Time until which heart rate was higher: approximately 300 minutes
[3]; compared with diphenhydramine
  Anxiety and nausea during administration sessions: reported more frequently
[3]; during medication sessions
  Heart rate relative to diphenhydramine group: higher
  Systolic and diastolic blood pressure relative to diphenhydramine: increased
[3]; for 15 minutes, resolved without sequelae
  Participants reporting passive suicidal ideation during a medication session: One
[3]; in vivo
  Persistent disturbances suggestive of psychosis or hallucinogen persisting perception disorder: no persistent disturbances
  Severity of adverse events associated with administration: mostly mild and self-limiting
[3]; second medication session
  Participants given diazepam 10 mg by mouth for anxiety: Two
[4]
  Total Problems score, between-group Hedges' g: 0.67
  Total Problems score, between-group mean difference: 6.41
[5]
  Tolerability: well tolerated

## CCN(CC)C(=O)[C@@H]1C=C2c3cccc4[nH]cc(c34)C[C@H]2N(C)C1 [lysergic acid diethylamide (LSD), lysergic acid diethylamide]
[6]
  Odds ratio of remission during follow-up vs comparator conditions: 1.96

— patent US20240000814A1, “TREATING ALCOHOL USE DISORDER USING PSILOCYBIN” (New York University, priority 2022, published 2024)
